30 molecules from patent publication US20260216294A1, “BETA 2-ADRENERGIC RECEPTOR AGONISTS FOR TREATMENT OR PREVENTION OF MUSCLE WASTING” (ATROGI AB, priority 2023, published 2026) can be followed below.

The test system of assay [1] is L6-myotubes. The assay is described as follows: Glucose uptake in differentiated L6-myotubes (Biological Example 2). Type of assay: cell-based. As to conditions: for Emax at 10 µM: read-out: Biological example 2 (GU). The method, boiled down:
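Differentiated L6 myotubes were serum-starved overnight in 0.5% fatty-acid-free BSA and then stimulated with compound or isoprenaline at 1×10^−5 M final. After 1 h 40 min cells were washed and re-dosed in glucose-free medium. Twenty minutes later, uptake of 50 nM ^3H-2-deoxyglucose over 10 min was measured by scintillation counting of NaOH lysates.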

Assay [2] relates to L6-myotubes. Briefly: Measurement of intracellular cAMP levels in differentiated L6-myotubes (Biological Example 3). The assay is classed as cell-based. As to conditions: 0.25 h. The method, boiled down:
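Serum-starved differentiated L6 myotubes stimulated 15 min with test compound at 1×10^−5 M final (isoprenaline as reference) in HBSS with 1% BSA, 5 mM HEPES, 1 mM IBMX, pH 7.4. Cells EtOH-extracted, lysed, and intracellular cAMP measured by AlphaScreen.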
A general note: Changes in cAMP serve as a functional read-out for many G protein-coupled receptors.

The mark [3] stands for this setting: glucose uptake, compound at 10 μM relative to isoproterenol at 10 μM.
The mark [4] stands for this setting: intracellular cAMP, compound at 10 μM relative to isoproterenol at 10 μM.
The mark [5] stands for this setting: glucose uptake in differentiated L6-myotubes, compound at 10 μM, activity relative to isoproterenol at 10 μM.
[6] abbreviates: intracellular cAMP in differentiated L6-myotubes, compound at 10 μM, activity relative to isoproterenol at 10 μM.

As for `CC1(C)CC[C@H]([C@@H](O)c2cncc(F)c2)N1` [Compound 156], the Emax at 10 µM with L6-myotubes [1] (setting [3]) and in the assay with L6-myotubes [2] (setting [4]) was below 25% each time.
Regarding `CCC[C@H]1CCC[C@H]([C@@H](O)c2cccc(O)c2)N1` [Compound 155], the Emax at 10 µM with L6-myotubes [1] (setting [3]) and in the assay with L6-myotubes [2] (setting [4]) was below 25% in each case.
With `CCC[C@@H](C)NC[C@H](O)c1ccc(O)cc1` [Compound 27, (R)-2-[(R)-1-methylbutylamino]-1-(p-hydroxyphenyl)-1-ethanol], the Emax at 10 µM in the assay on L6-myotubes [1] (setting [3]) is above 75%; in the assay on L6-myotubes [2] (setting [4]), 25 to 50%.
Take `O[C@@H](CNC[C@H]1CC[C@@H](OCc2ccccc2)CC1)c1cccc(F)c1` [Compound 262, (R)-1-(m-fluorophenyl)-2-({[(1s,4S)-4-(benzyloxy)cyclohexyl]methyl}amino)-1-ethanol]: the values for the Emax at 10 µM in the assay with L6-myotubes [1] (setting [5]) and with L6-myotubes [2] (setting [6]) were 25 to 50% and below 25%, respectively.
With `CC1(C)C[C@@H]([C@@H](O)c2cncc(F)c2)N1` [Compound 215], the Emax at 10 µM was 25 to 50% in the assay with L6-myotubes [1] (setting [5]) and below 25% with L6-myotubes [2] (setting [6]).
As to `CCCCNCC(O)c1cc(F)c(N)c(F)c1` (stereo not drawn) [Compound 37, 1-(4-amino-3,5-difluorophenyl)-2-(butylamino)-1-ethanol], the Emax at 10 µM in the assay on L6-myotubes [1] (setting [3]) and with L6-myotubes [2] (setting [4]) was above 75% in each case.
Turning to `CC12CC(C1)[C@@H]([C@H](O)c1cccc(Cl)c1)N2` [Compound 209], the figures for the Emax at 10 µM with L6-myotubes [1] (setting [5]) and in the assay with L6-myotubes [2] (setting [6]) were 25 to 50% and below 25%, respectively.
The matching figures for `O[C@@H](CNCCC[C@H]1CC[C@H](OCc2ccccc2)CC1)c1cncc(F)c1` [Compound 276, (R)-1-(5-fluoro-3-pyridyl)-2-{3-[(1r,4S)-4-(benzyloxy)cyclohexyl]propylamino}-1-ethanol]: 25 to 50% and below 25%.
For `CNS(=O)(=O)[C@H]1CC[C@H](CC(C)(C)NC[C@H](O)c2cccc(F)c2)CC1` [Compound 476] the same measures were above 75% and 25 to 50%.
For `CC(C)(C[C@H]1CC[C@H](N)CC1)NC[C@H](O)c1cccc(C#N)n1` [Compound 417], the Emax at 10 µM in the assay with L6-myotubes [1] (setting [5]) was above 75%; in the assay on L6-myotubes [2] (setting [6]), 25 to 50%.
With `CC12CC(C1)[C@@H]([C@H](O)c1cccc(F)c1)N2` [Compound 188, (R)-{(S)-1-methyl-2-azabicyclo[[2.1.1]]hex-3-yl}(m-fluorophenyl)methanol], the Emax at 10 µM in the assay on L6-myotubes [1] (setting [3]) and in the assay on L6-myotubes [2] (setting [4]) was below 25% in each case.
Regarding `CCC[C@H]1CCC[C@@H]([C@H](O)c2cccc(O)c2)N1` [Compound 122], the Emax at 10 µM in the assay with L6-myotubes [1] (setting [3]) is 50 to 75%; with L6-myotubes [2] (setting [4]), below 25%.
Regarding `CC(=O)N[C@H]1CC[C@H](C[C@@H]2CC[C@H]([C@@H](O)c3cccc(F)c3)N2)CC1` [Compound 486], the Emax at 10 µM in the assay on L6-myotubes [1] (setting [5]) is 50 to 75%; with L6-myotubes [2] (setting [6]) it was below 25%.
On to `CC12CCC([C@H](O)c3cncc(F)c3)(CC1)N2` [Compound 185, (R)-(5-fluoro-3-pyridyl)(4-methyl-7-azabicyclo[[2.2.1]]hept-1-yl)methanol], for which the Emax at 10 µM with L6-myotubes [1] (setting [3]) was above 75%; with L6-myotubes [2] (setting [4]), below 25%.
Regarding `O[C@@H](CNC[C@H]1CC[C@H](O)CC1)c1cncc(F)c1` [Compound 274, (R)-1-(5-fluoro-3-pyridyl)-2-({[(1r,4R)-4-hydroxycyclohexyl]methyl}amino)-1-ethanol], the Emax at 10 µM in the assay on L6-myotubes [1] (setting [5]) and with L6-myotubes [2] (setting [6]) was below 25% in each case.
Consider `CC(C)(C[C@H]1CC[C@@H](C(=O)O)CC1)NC[C@H](O)c1cncc(F)c1` [Compound 324, (1S,4s)-4-{2-[(R)-2-(5-fluoro-3-pyridyl)-2-hydroxyethylamino]-2-methylpropyl} cyclohexanecarboxylic acid], for which the Emax at 10 µM in the assay with L6-myotubes [1] (setting [5]) was 25 to 50%; with L6-myotubes [2] (setting [6]) it was below 25%.
Take `O[C@H](c1cccc(F)c1)[C@H]1CC[C@@H](Cc2ccc(Cl)cc2)N1` [Compound 392, (R)-{(2R,5S)-5-[(p-chlorophenyl)methyl]-2-pyrrolidinyl}(m-fluorophenyl)methanol]: the Emax at 10 µM in the assay on L6-myotubes [1] (setting [5]) is above 75%; with L6-myotubes [2] (setting [6]), below 25%.
With `CC(C)(NC[C@H](O)c1cccc(F)c1)[C@H]1CC[C@H](N)CC1` [Compound 381], the Emax at 10 µM in the assay on L6-myotubes [1] (setting [5]) is 50 to 75%; in the assay with L6-myotubes [2] (setting [6]), below 25%.
Regarding `CC(=O)N(C)[C@H]1CC[C@@H](CC(C)(C)NC[C@H](O)c2cncc(F)c2)CC1` [Compound 507], the “Biological example 2 (GU)” value in the assay with L6-myotubes [1] (setting [5]) was “++ (if it is between 75 and 50% it is denoted with ++)”. The molecule further showed an Emax at 10 µM with L6-myotubes [2] (setting [6]) below 25%.
As to `CCCCNC[C@H](O)c1ccc(F)c(O)c1` [Compound 85, (R)-2-(butylamino)-1-(4-fluoro-3-hydroxyphenyl)-1-ethanol], the Emax at 10 µM in the assay on L6-myotubes [1] (setting [3]) is above 75%; in the assay with L6-myotubes [2] (setting [4]), below 25%.
For `CCCCNCC(O)c1ccc(O)c(Cl)c1` (stereo not drawn) [Compound 20, 2-(butylamino)-1-(3-chloro-4-hydroxyphenyl)-1-ethanol], the Emax at 10 µM was 25 to 50% in the assay on L6-myotubes [1] (setting [3]) and below 25% in the assay with L6-myotubes [2] (setting [4]).
For `CC(C)(CC[C@H]1CC[C@@H](O)CC1)NC[C@H](O)c1cccc(F)c1` [Compound 295, (R)-2-{1,1-dimethyl-3-[(1s,4R)-4-hydroxycyclohexyl]propylamino}-1-(m-fluorophenyl)-1-ethanol], the Emax at 10 µM in the assay on L6-myotubes [1] (setting [5]) was above 75%; with L6-myotubes [2] (setting [6]), below 25%.
As to `CCCC(C)(C)NC[C@H](O)c1cccc(F)c1` [Compound 61, (R)-2-(1,1-dimethylbutylamino)-1-(m-fluorophenyl)-1-ethanol], the Emax at 10 µM is above 75% in the assay with L6-myotubes [1] (setting [3]) and below 25% with L6-myotubes [2] (setting [4]).
`O[C@@H](c1cncc(F)c1)C12CCC(CCc3ccc(OC(F)(F)F)cc3)(CC1)N2` [Compound 543, (S)-(5-fluoro-3-pyridyl){4-[2-(p-trifluoromethoxyphenyl)ethyl]-7-azabicyclo[[2.2.1]]hept-1-yl}methanol]: the Emax at 10 µM in the assay with L6-myotubes [1] (setting [5]) and in the assay on L6-myotubes [2] (setting [6]) was below 25% each time.
As for `CC(C)(C[C@H]1CC[C@@H](NS(C)(=O)=O)CC1)NC[C@H](O)c1cccc(C(F)(F)F)n1` [Compound 463], the Emax at 10 µM in the assay on L6-myotubes [1] (setting [5]) is 50 to 75%; with L6-myotubes [2] (setting [6]), below 25%.
Regarding `CC12CCC([C@@H](O)c3cccc(Cl)c3)(CC1)N2` [Compound 196, (S)-(m-chlorophenyl)(4-methyl-7-azabicyclo[[2.2.1]]hept-1-yl)methanol], the values for the Emax at 10 µM in the assay on L6-myotubes [1] (setting [3]) and in the assay on L6-myotubes [2] (setting [4]) were 25 to 50% and below 25%, respectively.
For `CC(C)(NC[C@H](O)c1cncc(F)c1)[C@H]1CC[C@H](C(=O)O)CC1` [Compound 390, (1R,4r)-8-[(R)-2-(5-fluoro-3-pyridyl)-2-hydroxyethylamino]-7-hydroxy-p-menthan-7-one], the Emax at 10 µM in the assay with L6-myotubes [1] (setting [5]) is 50 to 75%; in the assay with L6-myotubes [2] (setting [6]), below 25%.
As to `CC12CCC([C@@H](O)c3cccc(F)c3)(CC1)N2` [Compound 178, (S)-(m-fluorophenyl)(4-methyl-7-azabicyclo[[2.2.1]]hept-1-yl)methanol], the Emax at 10 µM with L6-myotubes [1] (setting [3]) was 25 to 50%; in the assay with L6-myotubes [2] (setting [4]) it was below 25%.
Turning to `CCC[C@H]1CCC[C@H]([C@H](O)c2cc(F)cc(F)c2)N1` [Compound 68], the figures for the Emax at 10 µM with L6-myotubes [1] (setting [3]) and in the assay on L6-myotubes [2] (setting [4]) were 50 to 75% and below 25%, respectively.
As to `O[C@H](c1cccc(F)c1)C12CCC(Cc3ccc(OC(F)(F)F)cc3)(CC1)N2` [Compound 500, (S)-(m-fluorophenyl){4-[(p-trifluoromethoxyphenyl)methyl]-7-azabicyclo[[2.2.1]]hept-1-yl}methanol], the Emax at 10 µM in the assay on L6-myotubes [1] (setting [5]) and with L6-myotubes [2] (setting [6]) was below 25% each time.
